Reference: ChEMBL document CHEMBL1146789, “(+/-)8-Amino-5,6,7,8-tetrahydroisoquinolines as novel antinociceptive agents” (Bioorg Med Chem Lett, 2004)
Activity calls are given as the source filed them. The rule behind the calls is not given here.

Experiments:
[1] = target: T1, Neuronal acetylcholine receptor; alpha4/beta2 (Homo sapiens, UniProt P17787+P43681); assay: Affinity for nicotinic acetylcholine receptor alpha4-beta2; assay type: protein-complex assay
[2] = target: 5-hydroxytryptamine receptor 5A (Homo sapiens, UniProt P47898); assay: Affinity towards human 5-hydroxytryptamine 5A serotonin receptor
[3] = target: Muscarinic acetylcholine receptor M1 (Homo sapiens, UniProt P11229); assay: Affinity towards human muscarinic acetylcholine receptor M1
[4] = Binding towards calcium channel(Ca++); NA- Not active
[5] = target: Delta-type opioid receptor (Homo sapiens, UniProt P41143); assay: Affinity towards opioid receptor delta 1
[6] = target: 5-hydroxytryptamine receptor 2B (Homo sapiens, UniProt P41595); assay: Affinity towards human 5-hydroxytryptamine 2B serotonin receptor
[7] = target: 5-hydroxytryptamine receptor 7 (Homo sapiens, UniProt P34969); assay: Affinity towards human 5-hydroxytryptamine 7 serotonin receptor
[8] = target: Kappa-type opioid receptor (Homo sapiens, UniProt P41145); assay: Affinity towards kappa opioid receptor
D(1A) dopamine receptor = D(1A) dopamine receptor (Homo sapiens, UniProt P21728); assay: Affinity towards human Dopamine receptor D1
Translocator protein = Translocator protein (Homo sapiens, UniProt P30536); assay: Binding affinity for peripheral benzodiazepine receptor
Mus musculus [9] = assay: Antinociceptive action was determined by tail-flick assay in mouse administered subcutaneously; assay type: functional; conditions: sc
[10] = target: GABA-A receptor; anion channel; assay: Binding affinity for GABA-A central benzodiazepine receptor; assay type: protein-complex assay
Mus musculus [11] = assay: Antinociceptive action was determined by hotplate assay in mouse administered subcutaneously; assay type: functional; conditions: sc
[12] = target: 5-hydroxytryptamine receptor 1B (Homo sapiens, UniProt P28222); assay: Affinity towards human 5-hydroxytryptamine 1B serotonin receptor
Adenosine receptor A1 = Adenosine receptor A1 (Homo sapiens, UniProt P30542); assay: Affinity towards human adenosine A1 receptor
[13] = target: Muscarinic acetylcholine receptor M2 (Homo sapiens, UniProt P08172); assay: Affinity towards human muscarinic acetylcholine receptor M2
[14] = Binding towards chloride channel(Cl-); NA = Not active
[15] = target: Sodium-dependent dopamine transporter (Homo sapiens) (UniProt Q01959); assay: Binding towards dopamine transporter; NA- Not active
[16] = target: Muscarinic acetylcholine receptor M3 (Homo sapiens, UniProt P20309); assay: Affinity towards human muscarinic acetylcholine receptor M3
Mu-type opioid receptor = Mu-type opioid receptor (Homo sapiens, UniProt P35372); assay: Affinity towards opioid receptor mu 1
D(4) dopamine receptor = D(4) dopamine receptor (Homo sapiens, UniProt P21917); assay: Affinity towards human dopamine receptor D4
[17] = target: Sodium-dependent noradrenaline transporter (Homo sapiens) (UniProt P23975); assay: Binding towards norepinephrine transporter; NA= Not active
[18] = target: Beta-2 adrenergic receptor (Homo sapiens, UniProt P07550); assay: Affinity towards human beta-2 adrenergic receptor
[19] = target: Muscarinic acetylcholine receptor M5 (Homo sapiens, UniProt P08912); assay: Affinity towards human Muscarinic acetylcholine receptor M5
[20] = target: Adrenergic receptor alpha-2 (Homo sapiens, UniProt P08913+P18825+P18089); assay: Affinity towards alpha-2 adrenergic receptor; assay type: protein assay
Histamine H1 receptor = Histamine H1 receptor (Homo sapiens, UniProt P35367); assay: Affinity towards histamine H1 receptor
[21] = target: 5-hydroxytryptamine receptor 6 (Homo sapiens, UniProt P50406); assay: Affinity towards human 5-hydroxytryptamine 6 serotonin receptor
[22] = target: 5-hydroxytryptamine receptor 2C (Homo sapiens, UniProt P28335); assay: Affinity towards human 5-hydroxytryptamine 2C serotonin receptor
Mus musculus [23] = assay: Antinociceptive action was determined by tail-flick assay in mouse administered intrathecally; assay type: functional; conditions: central
[24] = Binding towards sodium channel(Na+); NA = Not active
Histamine H2 receptor = Histamine H2 receptor (Homo sapiens, UniProt P25021); assay: Affinity towards histamine H2 receptor
D(2) dopamine receptor = D(2) dopamine receptor (Homo sapiens, UniProt P14416); assay: Affinity towards human dopamine receptor D2
Adenosine receptor A3 = Adenosine receptor A3 (Homo sapiens, UniProt P0DMS8); assay: Affinity towards human adenosine A3 receptor
[25] = target: 5-hydroxytryptamine receptor 1A (Homo sapiens, UniProt P08908); assay: Affinity towards human 5-hydroxytryptamine 1A serotonin receptor
[26] = target: A-type voltage-gated potassium channel KCND3 (Homo sapiens, UniProt Q9UK17); assay: Binding towards potassium channel(K+); NA = Not active
[27] = target: Serotonin 3 (5-HT3) receptor; assay: Affinity towards human 5-hydroxytryptamine 3 serotonin receptor; assay type: protein-complex assay
D(3) dopamine receptor = D(3) dopamine receptor (Homo sapiens, UniProt P35462); assay: Affinity towards human dopamine receptor D3
Adenosine A2 receptor = Adenosine A2 receptor (Homo sapiens, UniProt P29275+P29274); assay: Affinity towards human adenosine A2 receptor; assay type: protein assay
[28] = target: Muscarinic acetylcholine receptor M4 (Homo sapiens, UniProt P08173); assay: Affinity towards human Muscarinic acetylcholine receptor M4
[29] = target: Adrenergic receptor alpha-1 (Homo sapiens, UniProt P35348+P25100+P35368); assay: Affinity towards alpha-1 adrenergic receptor; assay type: protein assay
D(1B) dopamine receptor = D(1B) dopamine receptor (Homo sapiens, UniProt P21918); assay: Affinity towards human dopamine receptor D5
[30] = target: T1, Neuronal acetylcholine receptor; alpha4/beta2; assay: Affinity for nicotinic acetylcholine receptor alpha4-beta2; NA = Not active; assay type: protein-complex assay
Mus musculus [31] = species on record: Mus musculus; assay: Antinociceptive action was determined; P- Possess activity; assay type: functional, organism-based
Mus musculus [32] = assay: Antinociceptive action was determined by tail-flick assay in mouse administered subcutaneously at a dose of 10 mg/kg; assay type: functional; conditions: route subcutaneous
Mus musculus [33] = assay: Antinociceptive action was determined by hotplate assay in mouse administered subcutaneously at a dose of 10 mg/kg; assay type: functional; conditions: route subcutaneous
Mus musculus [34] = assay: Antinociceptive action was determined by tail-flick assay in mouse administered intrathecally at a dose of 20-25 ug; assay type: functional

T1 sequence (P17787 whole entry): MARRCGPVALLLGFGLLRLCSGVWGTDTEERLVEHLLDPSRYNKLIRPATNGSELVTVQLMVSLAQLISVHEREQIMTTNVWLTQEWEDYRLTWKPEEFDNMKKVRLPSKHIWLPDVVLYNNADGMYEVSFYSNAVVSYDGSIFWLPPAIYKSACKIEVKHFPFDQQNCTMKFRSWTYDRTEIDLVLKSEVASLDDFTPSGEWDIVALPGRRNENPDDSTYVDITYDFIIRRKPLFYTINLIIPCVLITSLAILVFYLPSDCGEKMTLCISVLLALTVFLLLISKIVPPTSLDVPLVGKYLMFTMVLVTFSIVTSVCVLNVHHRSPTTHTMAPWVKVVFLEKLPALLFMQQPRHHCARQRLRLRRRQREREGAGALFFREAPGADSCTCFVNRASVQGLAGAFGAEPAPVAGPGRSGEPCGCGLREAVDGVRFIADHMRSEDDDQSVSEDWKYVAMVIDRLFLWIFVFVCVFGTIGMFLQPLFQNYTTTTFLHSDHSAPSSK
T1 sequence (P43681 whole entry): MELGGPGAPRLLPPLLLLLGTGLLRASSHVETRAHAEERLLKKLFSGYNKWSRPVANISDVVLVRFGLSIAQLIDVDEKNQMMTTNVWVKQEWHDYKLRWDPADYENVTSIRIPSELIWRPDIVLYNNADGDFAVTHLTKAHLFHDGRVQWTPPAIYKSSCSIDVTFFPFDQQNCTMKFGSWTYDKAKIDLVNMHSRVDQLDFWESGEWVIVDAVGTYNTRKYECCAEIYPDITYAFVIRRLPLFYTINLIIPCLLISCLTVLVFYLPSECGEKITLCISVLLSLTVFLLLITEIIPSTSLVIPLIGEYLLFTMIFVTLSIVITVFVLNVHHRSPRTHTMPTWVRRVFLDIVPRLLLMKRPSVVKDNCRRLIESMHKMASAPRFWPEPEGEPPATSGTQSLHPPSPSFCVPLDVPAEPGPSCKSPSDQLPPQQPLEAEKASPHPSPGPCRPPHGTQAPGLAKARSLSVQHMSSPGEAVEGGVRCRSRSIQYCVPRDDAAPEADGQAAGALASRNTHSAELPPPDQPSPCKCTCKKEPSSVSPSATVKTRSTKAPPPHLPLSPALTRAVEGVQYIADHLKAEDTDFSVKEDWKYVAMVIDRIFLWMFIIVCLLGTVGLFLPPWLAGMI
Sequence of 5-hydroxytryptamine receptor 6 (P50406 whole entry): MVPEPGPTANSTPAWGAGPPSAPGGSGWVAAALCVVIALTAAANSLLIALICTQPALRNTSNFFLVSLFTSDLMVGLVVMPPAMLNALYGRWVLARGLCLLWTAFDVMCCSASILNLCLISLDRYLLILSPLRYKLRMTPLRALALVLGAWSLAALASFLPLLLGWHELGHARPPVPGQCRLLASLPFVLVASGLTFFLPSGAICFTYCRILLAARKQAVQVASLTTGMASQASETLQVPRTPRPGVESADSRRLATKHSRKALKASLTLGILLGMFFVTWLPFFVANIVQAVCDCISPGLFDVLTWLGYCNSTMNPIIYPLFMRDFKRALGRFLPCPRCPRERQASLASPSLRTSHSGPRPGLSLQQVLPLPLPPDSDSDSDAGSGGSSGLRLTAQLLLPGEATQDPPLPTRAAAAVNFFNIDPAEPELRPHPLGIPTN
Sequence of Adenosine receptor A3 (P0DMS8 whole entry): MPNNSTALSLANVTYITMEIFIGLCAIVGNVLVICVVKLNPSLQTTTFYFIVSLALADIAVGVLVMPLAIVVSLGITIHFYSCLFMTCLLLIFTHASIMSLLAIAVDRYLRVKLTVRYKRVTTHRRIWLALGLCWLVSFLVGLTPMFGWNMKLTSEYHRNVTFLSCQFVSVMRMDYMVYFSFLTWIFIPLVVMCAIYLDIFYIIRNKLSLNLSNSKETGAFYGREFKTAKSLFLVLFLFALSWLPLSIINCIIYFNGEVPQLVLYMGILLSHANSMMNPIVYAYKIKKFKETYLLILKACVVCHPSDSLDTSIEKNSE
Sequence of Kappa-type opioid receptor (P41145 whole entry): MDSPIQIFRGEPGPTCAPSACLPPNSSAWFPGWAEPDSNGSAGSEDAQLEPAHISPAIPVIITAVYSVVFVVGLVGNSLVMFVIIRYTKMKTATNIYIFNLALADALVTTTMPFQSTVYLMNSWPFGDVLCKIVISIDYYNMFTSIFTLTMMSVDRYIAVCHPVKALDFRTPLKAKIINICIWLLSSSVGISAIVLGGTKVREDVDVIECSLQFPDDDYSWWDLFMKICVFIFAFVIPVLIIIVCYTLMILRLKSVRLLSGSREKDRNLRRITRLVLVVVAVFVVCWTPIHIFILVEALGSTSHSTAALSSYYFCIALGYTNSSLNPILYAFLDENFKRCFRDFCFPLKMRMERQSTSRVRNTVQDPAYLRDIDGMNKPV
Sequence of Muscarinic acetylcholine receptor M4 (P08173 whole entry): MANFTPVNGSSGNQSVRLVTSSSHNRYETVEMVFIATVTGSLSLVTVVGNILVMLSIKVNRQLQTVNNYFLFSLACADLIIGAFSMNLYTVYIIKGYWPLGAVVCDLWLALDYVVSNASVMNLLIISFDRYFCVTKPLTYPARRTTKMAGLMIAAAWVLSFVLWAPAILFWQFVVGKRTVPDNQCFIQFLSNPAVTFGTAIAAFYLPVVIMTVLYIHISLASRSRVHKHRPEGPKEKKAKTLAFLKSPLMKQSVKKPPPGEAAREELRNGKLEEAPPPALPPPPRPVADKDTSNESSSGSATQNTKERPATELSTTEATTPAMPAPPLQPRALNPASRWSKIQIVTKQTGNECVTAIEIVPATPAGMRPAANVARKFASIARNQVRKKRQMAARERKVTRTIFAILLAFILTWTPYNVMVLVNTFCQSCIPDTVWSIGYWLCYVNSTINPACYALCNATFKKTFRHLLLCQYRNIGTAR
Sequence of D(1A) dopamine receptor (P21728 whole entry): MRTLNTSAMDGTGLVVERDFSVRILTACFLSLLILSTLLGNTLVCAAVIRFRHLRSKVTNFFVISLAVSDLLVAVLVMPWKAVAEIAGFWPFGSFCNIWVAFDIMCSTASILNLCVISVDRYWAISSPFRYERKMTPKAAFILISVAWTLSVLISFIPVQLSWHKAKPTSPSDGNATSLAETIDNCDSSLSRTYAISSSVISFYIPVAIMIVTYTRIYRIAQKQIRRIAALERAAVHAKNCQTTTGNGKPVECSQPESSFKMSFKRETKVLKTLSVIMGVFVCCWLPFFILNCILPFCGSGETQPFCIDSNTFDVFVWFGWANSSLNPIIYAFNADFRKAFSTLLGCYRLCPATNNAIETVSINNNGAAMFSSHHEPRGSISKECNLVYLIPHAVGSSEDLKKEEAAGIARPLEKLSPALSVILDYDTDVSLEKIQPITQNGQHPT
Sequence of Delta-type opioid receptor (P41143 whole entry): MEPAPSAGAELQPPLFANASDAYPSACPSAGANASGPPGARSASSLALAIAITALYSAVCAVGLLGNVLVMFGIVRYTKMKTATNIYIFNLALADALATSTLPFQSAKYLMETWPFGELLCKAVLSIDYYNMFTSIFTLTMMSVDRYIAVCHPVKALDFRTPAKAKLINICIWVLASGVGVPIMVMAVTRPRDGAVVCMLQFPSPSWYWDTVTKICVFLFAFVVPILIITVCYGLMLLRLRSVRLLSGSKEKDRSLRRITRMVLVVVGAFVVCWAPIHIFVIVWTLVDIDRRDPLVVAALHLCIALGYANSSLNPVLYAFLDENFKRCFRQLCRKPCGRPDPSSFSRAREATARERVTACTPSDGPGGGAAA
Sequence of 5-hydroxytryptamine receptor 1A (P08908 whole entry): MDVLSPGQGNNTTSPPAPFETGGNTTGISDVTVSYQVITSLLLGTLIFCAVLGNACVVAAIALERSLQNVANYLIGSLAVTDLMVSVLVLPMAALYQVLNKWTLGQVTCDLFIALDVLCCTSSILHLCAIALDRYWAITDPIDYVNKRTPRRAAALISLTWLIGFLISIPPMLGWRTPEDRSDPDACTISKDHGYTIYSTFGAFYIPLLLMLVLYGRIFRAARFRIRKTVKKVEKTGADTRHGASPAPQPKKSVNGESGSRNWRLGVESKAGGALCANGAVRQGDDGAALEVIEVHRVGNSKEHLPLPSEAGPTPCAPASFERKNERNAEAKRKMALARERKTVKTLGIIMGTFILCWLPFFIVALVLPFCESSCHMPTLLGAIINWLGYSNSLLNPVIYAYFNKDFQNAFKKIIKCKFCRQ
Sequence of A-type voltage-gated potassium channel KCND3 (Q9UK17 whole entry): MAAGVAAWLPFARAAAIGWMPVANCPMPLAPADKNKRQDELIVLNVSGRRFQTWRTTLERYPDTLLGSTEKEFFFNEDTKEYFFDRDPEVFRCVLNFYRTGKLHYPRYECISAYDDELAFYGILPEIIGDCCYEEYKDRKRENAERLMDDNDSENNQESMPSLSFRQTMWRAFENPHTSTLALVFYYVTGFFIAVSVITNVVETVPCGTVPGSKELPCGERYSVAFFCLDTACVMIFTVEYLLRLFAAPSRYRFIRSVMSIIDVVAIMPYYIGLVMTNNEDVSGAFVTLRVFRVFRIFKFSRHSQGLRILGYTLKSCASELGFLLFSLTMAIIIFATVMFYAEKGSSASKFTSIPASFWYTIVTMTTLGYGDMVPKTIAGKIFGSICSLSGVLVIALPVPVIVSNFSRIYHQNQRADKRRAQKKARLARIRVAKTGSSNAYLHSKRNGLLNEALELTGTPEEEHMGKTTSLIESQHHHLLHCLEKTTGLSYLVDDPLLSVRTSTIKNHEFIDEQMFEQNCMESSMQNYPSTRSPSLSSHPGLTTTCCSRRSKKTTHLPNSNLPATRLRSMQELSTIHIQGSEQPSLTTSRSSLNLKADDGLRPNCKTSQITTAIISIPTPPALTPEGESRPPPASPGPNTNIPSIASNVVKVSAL
Sequence of Translocator protein (P30536 whole entry): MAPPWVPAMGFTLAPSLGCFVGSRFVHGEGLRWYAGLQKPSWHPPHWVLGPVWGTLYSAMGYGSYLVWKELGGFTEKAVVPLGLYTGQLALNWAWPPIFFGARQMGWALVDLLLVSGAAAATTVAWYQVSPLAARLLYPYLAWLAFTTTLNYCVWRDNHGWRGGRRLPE

SMILES: CCCN(C)C1CCCc2ccncc21 (stereo not given)
- Ki [1]: > 10 µM

SMILES: CCN(C)C1CCCc2ccncc21.O=C(O)/C=C\C(=O)O.O=C(O)/C=C\C(=O)O (stereo not given)
- Ki [2]: > 10 µM
- Ki [3]: > 10 µM
- Activity [4]: inactive
- Ki [5]: > 10 µM
- Ki [6]: > 10 µM
- Ki [7]: > 10 µM
- Ki [8]: > 10 µM
- Ki (D(1A) dopamine receptor): > 10 µM
- Ki (Translocator protein): > 10 µM
- ED50 (Mus musculus [9]): 0.6 mg/kg
- Ki [10]: > 10 µM
- ED50 (Mus musculus [11]): 0.2 mg/kg
- Ki [12]: > 10 µM
- Ki (Adenosine receptor A1): > 10 µM
- Ki [13]: > 10 µM
- Activity [14]: inactive
- Activity [15]: inactive
- Ki [16]: > 10 µM
- Ki (Mu-type opioid receptor): > 10 µM
- Ki (D(4) dopamine receptor): > 10 µM
- Activity [17]: inactive
- Ki [18]: > 10 µM
- Ki [1]: 0.93 µM
- Ki [19]: > 10 µM
- Ki [20]: > 10 µM
- Ki (Histamine H1 receptor): > 10 µM
- Ki [21]: > 10 µM
- Ki [22]: > 10 µM
- ED50 (Mus musculus [23]): 12 µg/mouse
- Activity [24]: inactive
- Ki (Histamine H2 receptor): > 10 µM
- Ki (D(2) dopamine receptor): > 10 µM
- Ki (Adenosine receptor A3): > 10 µM
- Ki [25]: > 10 µM
- Activity [26]: Not Active
- Ki [27]: > 10 µM
- Ki (D(3) dopamine receptor): > 10 µM
- Ki (Adenosine A2 receptor): > 10 µM
- Ki [28]: > 10 µM
- Ki [29]: > 10 µM
- Ki (D(1B) dopamine receptor): > 10 µM

SMILES: CN1CCC2CCc3ccncc3C21 (stereo not given)
- Ki [30]: Not Active
- Activity (Mus musculus [31]): Active

SMILES: COc1cc2c(cn1)C1NCCC1CC2 (stereo not given)
- Ki [30]: Not Active
- Activity (Mus musculus [31]): Active

SMILES: CCCNC1CCCc2ccncc21 (stereo not given)
- Ki [1]: > 10 µM

SMILES: CN1CCC[C@H]1c1cccnc1 [NICOTINE]
- ED50 (Mus musculus [9]): 1.5 mg/kg
- ED50 (Mus musculus [11]): 0.5 mg/kg
- ED50 (Mus musculus [23]): 12 µg/mouse

SMILES: NC1CCCc2ccncc21 (stereo not given)
- Ki [1]: > 10 µM
- MPE (Mus musculus [32]): 1%
- MPE (Mus musculus [33]): 10%

SMILES: CN(C)C1CCCc2ccncc21 (stereo not given)
- ED50 (Mus musculus [11]): 3.9 mg/kg
- Ki [1]: 0.33 µM
- MPE (Mus musculus [32]): 2%
- MPE (Mus musculus [34]): 8%

SMILES: CNC1CCCc2ccncc21 (stereo not given)
- Ki [1]: > 10 µM
- MPE (Mus musculus [32]): 0%
- ED50 (Mus musculus [23]): 13 µg/mouse
- MPE (Mus musculus [33]): 2%

SMILES: c1cc2c(cn1)C(N1CCCC1)CCC2 (stereo not given)
- Ki [1]: > 10 µM
- MPE (Mus musculus [32]): 2%
- MPE (Mus musculus [33]): 11%
- MPE (Mus musculus [34]): 6%
